Source: the OligoGym collection
Where “and” joins values, the source holds several entries; their conditions need not be identical. Equal entries are not always repeated. After the bases stand the sugars from the 5' end (letter, count) and the backbone: PS all phosphorothioate, else s phosphorothioate and o phosphodiester by linkage. Methylation of C is not given here. e = 2'-O-(2-methoxyethyl) (MOE); k = constrained ethyl (cEt); d = 2'-deoxy (DNA); m = 2'-O-methyl

Molecular target: HSD17B13
Conditions: ASO, HepaRG

Sequence	target mRNA inhibition (1 µM)	also measured
GACAACCCTTAACAAA (sugars k3 d10 k3, PS)	24%	
GCATTAATGCCACCCT (sugars k3 d10 k3, PS)	36%	
CACTTTCACTGGGTGT (sugars k3 d10 k3, PS)	7%	
GCAGATTATTATGTGA (sugars k3 d10 k3, PS)	59%	
CCTTACCTTGTGCTTG (sugars k3 d10 k3, PS)	20%	
GTTAGTATAGTTATCT (sugars k3 d1 m1 d8 k3, PS)	52%	
CTAAAACTGAAGGTCT (sugars k3 d10 k3, PS)	40%	
GTATTCCATAAAGCTG (sugars k3 d10 k3, PS)	10%	
AGTCAGTATCCCCTCA (sugars k3 d10 k3, PS)	82%	target mRNA inhibition (0.02 µM): 6%; target mRNA inhibition (0.078 µM): 14%; target mRNA inhibition (0.313 µM): 32%; target mRNA inhibition (1.25 µM): 70%; target mRNA inhibition (5 µM): 74%
CAGATTGGAATGCTAC (sugars kkdddddddddkekek, PS)	57%	
CCATGCAAAAGCATTC (sugars k3 d10 k3, PS)	72%	
CCACTTTTGGTGGACT (sugars k3 d10 k3, PS)	17%	
TGCTAGTGCCAAACCA (sugars k3 d10 k3, PS)	78%	target mRNA inhibition (0.02 µM): 3%; target mRNA inhibition (0.078 µM): 9%; target mRNA inhibition (0.313 µM): 49%; target mRNA inhibition (1.25 µM): 58%; target mRNA inhibition (5 µM): 89%
AAGGAGCTAGATACTC (sugars k3 d10 k3, PS)	19%	
CTCTTAGCTGTGCACT (sugars k3 d10 k3, PS)	53%	
AGGATGATGTTCATGG (sugars k3 d10 k3, PS)	88%	target mRNA inhibition (0.02 µM): 25%; target mRNA inhibition (0.078 µM): 27%; target mRNA inhibition (0.313 µM): 71%; target mRNA inhibition (1.25 µM): 80%; target mRNA inhibition (5 µM): 71%
AGCCAGTACAGTTCCT (sugars k3 d10 k3, PS)	58%	
TCAGACTTCTTACGAC (sugars k3 d10 k3, PS)	36%	
GGAGGTAGCTTTTGTC (sugars k3 d10 k3, PS)	43%	
TATTCTTATGTCATCC (sugars k3 d10 k3, PS)	75%	
AGTGGGAGTCGGATTA (sugars k3 d10 k3, PS)	50%	
CACGAAGCCTGAATGC (sugars k3 d10 k3, PS)	24%	
CAAAGATCTGGCCAGT (sugars k3 d10 k3, PS)	1%	
ACATCTCTGGGACCAA (sugars k3 d9 k3 e1, PS)	65%	

Sequence	target mRNA inhibition (1 µM)	also measured
ACCGTTTTGGGCTAAT (sugars k3 d9 k3 e1, PS)	73%	
GGTTCAGTCCTTGTGT (sugars k3 d10 k3, PS)	57%	
CATAACCTAATAACTA (sugars k3 d10 k3, PS)	10%	
TTGGAATGCTACTTGA (sugars k3 d1 m1 d8 k3, PS)	65%	
CTAGTTACAAACCACC (sugars k3 d10 k3, PS)	43%	
TAGGGAGGTAGCTTTT (sugars k3 d10 k3, PS)	46%	
GTCGGTCACCTTTCAT (sugars k3 d9 k3 e1, PS)	68%	
AGAGAGTAATCAGTTT (sugars k3 d10 k3, PS)	39%	
TGCAAGTTTATCAGTA (sugars k3 d10 k3, PS)	70%	target mRNA inhibition (0.02 µM): 28%; target mRNA inhibition (0.078 µM): 32%; target mRNA inhibition (0.313 µM): 62%; target mRNA inhibition (1.25 µM): 86%; target mRNA inhibition (5 µM): 92%
ATTGTCTAAACATCTC (sugars kkdddddddddkekek, PS)	62%	
AATTAACATTCGGCTA (sugars k3 d10 k3, PS)	38%	
AGGAAGTGATCCATAT (sugars k3 d10 k3, PS)	60%	
TTTCGGCACTCAGCTG (sugars k3 d10 k3, PS)	29%	
TTAGTCTTGATGTAGT (sugars k3 d9 k3 e1, PS)	61%	
ACATTAGCAAGCTAAG (sugars kkdddddddddkekek, PS)	23%	
CTCAAATAGCCTTTTG (sugars k3 d10 k3, PS)	64%	
TCTTAAGAGAAGGTGC (sugars k3 d10 k3, PS)	39%	
TTGGUAAGTATTCCAT (sugars k3 d1 m1 d8 k3, PS)	13%	
CCAAATCAGGTAGTTT (sugars k3 d10 k3, PS)	13%	
TTATTGGTATGGTAAG (sugars k3 d10 k3, PS)	14%	
TTCTACACCACACTAA (sugars k3 d10 k3, PS)	12%	
ATAGCAAGCCAACAGA (sugars k3 d10 k3, PS)	37%	
GATACTGGTGGACAAG (sugars k3 d10 k3, PS)	13%	
CTGCCAGGGAATGCTC (sugars k3 d10 k3, PS)	23%	

Sequence	target mRNA inhibition (1 µM)	also measured
TGGGACCAAGGATATA (sugars k3 d9 k3 e1, PS)	55%	
GATATTGATATACGAT (sugars k3 d10 k3, PS)	2%	
GACTTTGAGACTCTTG (sugars k3 d10 k3, PS)	65%	
ATCTTATAAGACTATA (sugars k3 d10 k3, PS)	32%	
ACCAAACTTCCAGCAG (sugars k3 d10 k3, PS)	31%	
CTCTAAAGCAGGCTAC (sugars k3 d10 k3, PS)	51%	
CTGGAAGGAGGATTCA (sugars k3 d10 k3, PS)	39%	
GTAAAGGCTGGGTGAG (sugars k3 d10 k3, PS)	41%	
ATAGCCAGTACAGTTC (sugars k3 d10 k3, PS)	65%	
CTCTGGGACCAAGGAT (sugars k3 d9 k3 e1, PS)	62%	
GCTGTAATTAGGAAGA (sugars k3 d10 k3, PS)	24%	
CCTCUAAGTTAGCCCC (sugars k3 d1 m1 d8 k3, PS)	8%	
CAGTAGGCAGTTTCTC (sugars k3 d10 k3, PS)	72% and 50%	target mRNA inhibition (0.02 µM): 0%; target mRNA inhibition (0.078 µM): 0%; target mRNA inhibition (0.313 µM): 30%; target mRNA inhibition (1.25 µM): 55%; target mRNA inhibition (5 µM): 86%
ACCTTGAATGAGTGGT (sugars k3 d10 k3, PS)	26%	
GCATCAAGACATTCTA (sugars k3 d9 k3 e1, PS)	84%	target mRNA inhibition (0.02 µM): 0%; target mRNA inhibition (0.078 µM): 8%; target mRNA inhibition (0.313 µM): 13%; target mRNA inhibition (1.25 µM): 31%; target mRNA inhibition (5 µM): 74%
CGTTTTGGGCTAATGA (sugars k3 d9 k3 e1, PS)	52%	
ACTTGATCTCTTAGCT (sugars k3 d10 k3, PS)	59%	
TTTATAGACTGGGTAG (sugars k3 d10 k3, PS)	59%	
TGATTGAGTTCTCCAC (sugars k3 d10 k3, PS)	48%	
ATGTAGTGGGAGTCGG (sugars k3 d10 k3, PS)	72%	
GAGTTAGGGAGCCAGC (sugars k3 d10 k3, PS)	39%	
TTCTCTTGACAATGGT (sugars k3 d10 k3, PS)	67%	
TTGCACCGTTTTGGGC (sugars kkdddddddddkekek, PS)	26%	
TGATAAAATAGGGTGC (sugars k3 d10 k3, PS)	44%	

Sequence	target mRNA inhibition (1 µM)	also measured
CTTTUTATAGACTGGG (sugars k3 d1 m1 d8 k3, PS)	34%	
GCCACTGTGACGATGT (sugars k3 d10 k3, PS)	9%	
TGCCAACACTAATCTC (sugars k3 d10 k3, PS)	30%	
CTGCUAGTGCCAAACC (sugars k3 d1 m1 d8 k3, PS)	67%	
TCTCTTGACAATGGTT (sugars k3 d10 k3, PS)	70%	target mRNA inhibition (0.02 µM): 2%; target mRNA inhibition (0.078 µM): 14%; target mRNA inhibition (0.313 µM): 44%; target mRNA inhibition (1.25 µM): 86%; target mRNA inhibition (5 µM): 86%
TACACTGACAACCCTT (sugars k3 d10 k3, PS)	56%	
AGTAGATTTGGTAGAG (sugars k3 d10 k3, PS)	67%	
CATATGGTGTACACTG (sugars k3 d10 k3, PS)	15%	
AGGTTGAGATAAAGCT (sugars k3 d9 k3 e1, PS)	71%	target mRNA inhibition (0.02 µM): 0%; target mRNA inhibition (0.078 µM): 23%; target mRNA inhibition (0.313 µM): 46%; target mRNA inhibition (1.25 µM): 64%; target mRNA inhibition (5 µM): 77%
ATAAGAGCCAAACTGC (sugars k3 d10 k3, PS)	49%	
GAACACTGTCATAAAG (sugars k3 d10 k3, PS)	43%	
GTATTTACTTTTAGGG (sugars k3 d10 k3, PS)	61%	
GTTAGCAAAACACTTG (sugars k3 d10 k3, PS)	71%	target mRNA inhibition (0.02 µM): 1%; target mRNA inhibition (0.078 µM): 15%; target mRNA inhibition (0.313 µM): 44%; target mRNA inhibition (1.25 µM): 68%; target mRNA inhibition (5 µM): 81%
ATCTTAAGAGAAGGTG (sugars k3 d10 k3, PS)	43%	
TCTTGACAATGGTTGC (sugars k3 d10 k3, PS)	77%	
GTGCATCTTAAGATAC (sugars k3 d1 m1 d8 k3, PS)	40%	
ATAGAGTTGCACCGTT (sugars k3 d10 k3, PS)	57%	
GACTTTTGTTTGTAGC (sugars k3 d10 k3, PS)	74%	
TGAAGCCACTGTGACG (sugars k3 d10 k3, PS)	49%	
GCCACTGGATGGATTT (sugars k3 d10 k3, PS)	36%	
TCTGGGACCAAGGATA (sugars k3 d10 k3, PS)	30%	
CATAGTGGACTTCATT (sugars k3 d10 k3, PS)	34%	
CCAACGACTCCAAGTA (sugars k3 d10 k3, PS)	20%	
